In article PMC5218480 (PLoS ONE, 2017):

Tested on: MV-4-11 cells
Assay: Gene expression microarray analysis (Affymetrix PrimeView) and GSEA
Assay type: cell-based, human
Parameters: RFU PODN (11730768_x_at) / Fold change /veh PODN (11730768_x_at) / RFU LINC00158 (11744669_a_at) / Fold change /veh LINC00158 (11744669_a_at) / RFU DUSP10 (11751237_a_at) / Fold change /veh DUSP10 (11751237_a_at) / RFU ID3 (11757404_x_at) / Fold change /veh ID3 (11757404_x_at) / RFU PLEKHG5 (11737974_s_at) / Fold change /veh PLEKHG5 (11737974_s_at) / RFU LRRC4B (11730491_at) / Fold change /veh LRRC4B (11730491_at) / RFU GIMAP4 (11747438_a_at) / Fold change /veh GIMAP4 (11747438_a_at) / RFU KRT8 (11758183_x_at) / Fold change /veh KRT8 (11758183_x_at) / RFU CNN1 (11734310_a_at) / Fold change /veh CNN1 (11734310_a_at) / RFU VPS37D (11726825_at) / Fold change /veh VPS37D (11726825_at) / RFU C10orf10 (11716522_x_at) / Fold change /veh C10orf10 (11716522_x_at) / RFU KIR2DL2 /// KIR2DL4 /// KIR2DL5A /// KIR2DL5B /// KIR2DS1 /// KIR2DS2 /// KIR2DS3 /// KIR2DS4 /// KIR3DL3 /// KIR3DL3 /// KIR3DS1 (11738374_at) / Fold change /veh KIR2DL2 /// KIR2DL4 /// KIR2DL5A /// KIR2DL5B /// KIR2DS1 /// KIR2DS2 /// KIR2DS3 /// KIR2DS4 /// KIR3DL3 /// KIR3DL3 /// KIR3DS1 (11738374_at) / RFU C1QL1 (11718748_at) / Fold change /veh C1QL1 (11718748_at) / RFU TMPRSS4 (11747572_a_at) / Fold change /veh TMPRSS4 (11747572_a_at) / RFU HAMP (11756126_x_at) / Fold change /veh HAMP (11756126_x_at) / RFU RNFT2 (11725882_a_at) / Fold change /veh RNFT2 (11725882_a_at) / RFU NR4A2 (11747474_a_at) / Fold change /veh NR4A2 (11747474_a_at) / RFU ABCC12 (11746883_a_at) / Fold change /veh ABCC12 (11746883_a_at) / RFU TMEM136 (11760407_x_at) / Fold change /veh TMEM136 (11760407_x_at) / RFU CLDN22 /// WWC2 (11732394_at) / Fold change /veh CLDN22 /// WWC2 (11732394_at) / RFU HLA-DPB1 (11760878_x_at) / Fold change /veh HLA-DPB1 (11760878_x_at) / RFU SPINT1 (11716480_a_at) / Fold change /veh SPINT1 (11716480_a_at) / RFU GAP43 (11754022_s_at) / Fold change /veh GAP43 (11754022_s_at) / RFU A4GNT (11735810_at) / Fold change /veh A4GNT (11735810_at) / RFU PRB3 (11715151_x_at) / Fold change /veh PRB3 (11715151_x_at) / RFU TUBB4B (11761932_at) / Fold change /veh TUBB4B (11761932_at) / RFU CAPN14 (11732068_a_at) / Fold change /veh CAPN14 (11732068_a_at) / RFU TMCC2 (11721928_a_at) / Fold change /veh TMCC2 (11721928_a_at) / RFU IRGQ (11745062_a_at) / Fold change /veh IRGQ (11745062_a_at) / RFU FAM174B (11720279_a_at) / Fold change /veh FAM174B (11720279_a_at) / RFU TMPRSS4 (11748680_a_at) / Fold change /veh TMPRSS4 (11748680_a_at) / RFU FAM212B (11763350_a_at) / Fold change /veh FAM212B (11763350_a_at) / RFU PLEKHG5 (11743358_a_at) / Fold change /veh PLEKHG5 (11743358_a_at) / RFU ZSCAN30 (11745921_a_at) / Fold change /veh ZSCAN30 (11745921_a_at) / RFU CMKLR1 (11741424_a_at) / Fold change /veh CMKLR1 (11741424_a_at) / RFU LOC101060620 /// MAPK8IP1 (11723275_at) / Fold change /veh LOC101060620 /// MAPK8IP1 (11723275_at) / RFU SPTSSB (11747773_x_at) / Fold change /veh SPTSSB (11747773_x_at) / RFU PRSS12 (11739890_at) / Fold change /veh PRSS12 (11739890_at) / RFU BIN1 (11741810_x_at) / Fold change /veh BIN1 (11741810_x_at) / RFU WNT11 (11732464_a_at) / Fold change /veh WNT11 (11732464_a_at) / RFU C10orf10 (11716521_a_at) / Fold change /veh C10orf10 (11716521_a_at) / RFU C5orf56 (11738089_at) / Fold change /veh C5orf56 (11738089_at) / RFU CYB561 (11721691_x_at) / Fold change /veh CYB561 (11721691_x_at) / RFU ANKRD19P (11752326_a_at) / Fold change /veh ANKRD19P (11752326_a_at) / RFU OR2T12 /// OR2T33 /// OR2T8 (11738714_s_at) / Fold change /veh OR2T12 /// OR2T33 /// OR2T8 (11738714_s_at) / RFU VCAN (11748164_a_at) / Fold change /veh VCAN (11748164_a_at) / RFU JSRP1 (11732532_at) / Fold change /veh JSRP1 (11732532_at) / RFU KRTAP10-11 (11738290_x_at) / Fold change /veh KRTAP10-11 (11738290_x_at) / RFU MYO3A (11730013_a_at) / Fold change /veh MYO3A (11730013_a_at) / RFU EBF3 (11725865_a_at) / Fold change /veh EBF3 (11725865_a_at) / RFU CAMK2N1 (11719241_x_at) / Fold change /veh CAMK2N1 (11719241_x_at) / RFU C5orf56 (11738088_a_at) / Fold change /veh C5orf56 (11738088_a_at) / RFU OLFML3 (11715873_a_at) / Fold change /veh OLFML3 (11715873_a_at) / RFU LOC100653217 /// NTM (11731650_a_at) / Fold change /veh LOC100653217 /// NTM (11731650_a_at) / RFU MAPK11 (11762145_a_at) / Fold change /veh MAPK11 (11762145_a_at) / RFU FIZ1 (11724087_x_at) / Fold change /veh FIZ1 (11724087_x_at) / RFU OASL (11726364_x_at) / Fold change /veh OASL (11726364_x_at) / RFU SOX15 (11748057_x_at) / Fold change /veh SOX15 (11748057_x_at) / RFU CD79A (11719716_a_at) / Fold change /veh CD79A (11719716_a_at) / RFU HIST1H1D (11736915_at) / Fold change /veh HIST1H1D (11736915_at) / RFU CASKIN2 (11723855_a_at) / Fold change /veh CASKIN2 (11723855_a_at) / RFU LOC730098 (11760151_x_at) / Fold change /veh LOC730098 (11760151_x_at) / RFU OR4N2 (11742367_at) / Fold change /veh OR4N2 (11742367_at) / RFU PRRT2 (11749266_a_at) / Fold change /veh PRRT2 (11749266_a_at) / RFU SNX32 (11753110_a_at) / Fold change /veh SNX32 (11753110_a_at) / RFU CDHR5 (11726645_a_at) / Fold change /veh CDHR5 (11726645_a_at) / RFU RCAN1 (11760418_a_at) / Fold change /veh RCAN1 (11760418_a_at) / RFU FAM167A (11723789_a_at) / Fold change /veh FAM167A (11723789_a_at) / RFU FAM26E (11764081_at) / Fold change /veh FAM26E (11764081_at) / RFU ISYNA1 (11749810_s_at) / Fold change /veh ISYNA1 (11749810_s_at) / RFU ACY1 (11761880_at) / Fold change /veh ACY1 (11761880_at) / RFU 11764098_at / Fold change /veh 11764098_at / RFU SAMD14 (11745864_x_at) / Fold change /veh SAMD14 (11745864_x_at) / RFU NPB (11741838_a_at) / Fold change /veh NPB (11741838_a_at) / RFU TMPRSS6 (11731388_a_at) / Fold change /veh TMPRSS6 (11731388_a_at) / RFU KRTAP10-2 (11738614_at) / Fold change /veh KRTAP10-2 (11738614_at) / RFU ARHGAP8 /// PRR5-ARHGAP8 (11727945_x_at) / Fold change /veh ARHGAP8 /// PRR5-ARHGAP8 (11727945_x_at) / RFU KRTAP5-7 /// NADSYN1 (11734609_at) / Fold change /veh KRTAP5-7 /// NADSYN1 (11734609_at) / RFU RASL12 (11751679_a_at) / Fold change /veh RASL12 (11751679_a_at) / RFU CDKN2B (11736163_a_at) / Fold change /veh CDKN2B (11736163_a_at) / RFU PRF1 (11729649_at) / Fold change /veh PRF1 (11729649_at) / RFU, ZNF638 /// ZNF638-IT1 / Fold change vs veh, ZNF638 /// ZNF638-IT1 / RFU, PANK3 / Fold change vs veh, PANK3 / RFU, SH3YL1 / Fold change vs veh, SH3YL1 / RFU, ZEB2 / Fold change vs veh, ZEB2 / RFU, NRIP1 / Fold change vs veh, NRIP1 / RFU, PTTG1IP / Fold change vs veh, PTTG1IP / RFU, CAPN2 / Fold change vs veh, CAPN2 / RFU, MED14 / Fold change vs veh, MED14 / RFU, SNORA58 / Fold change vs veh, SNORA58 / RFU, C1orf63 / Fold change vs veh, C1orf63 / RFU, LRRFIP1 / Fold change vs veh, LRRFIP1 / RFU, NDUFAF7 / Fold change vs veh, NDUFAF7 / RFU, SLC12A2 / Fold change vs veh, SLC12A2 / RFU, IBTK / Fold change vs veh, IBTK / RFU, ESF1 / Fold change vs veh, ESF1 / Fold change vs veh, TMEM50B / RFU, TAOK1 / Fold change vs veh, TAOK1 / RFU, ACBD3 / Fold change vs veh, ACBD3 / RFU, TMA16 / Fold change vs veh, TMA16 / RFU, RWDD3 / Fold change vs veh, RWDD3 / RFU, BCAT1 / Fold change vs veh, BCAT1 / RFU, EDEM3 / Fold change vs veh, EDEM3 / RFU, TMEM33 / Fold change vs veh, TMEM33 / RFU, WDR75 / Fold change vs veh, WDR75 / RFU, AHCTF1 / Fold change vs veh, AHCTF1 / RFU, TFRC / Fold change vs veh, TFRC / RFU, ZDHHC17 / Fold change vs veh, ZDHHC17 / RFU, NOM1 / Fold change vs veh, NOM1 / RFU, ARL8B / Fold change vs veh, ARL8B / RFU, ZBTB11 / Fold change vs veh, ZBTB11 / RFU, TAMM41 / Fold change vs veh, TAMM41 / RFU, KIAA1704 /// LOC100996395 / Fold change vs veh, KIAA1704 /// LOC100996395 / RFU, ING1 / Fold change vs veh, ING1 / RFU, TRMT61B / Fold change vs veh, TRMT61B / RFU, FUBP3 / Fold change vs veh, FUBP3 / RFU, TP53 / Fold change vs veh, TP53 / RFU, TNKS2 / Fold change vs veh, TNKS2 / RFU, ZFP14 / Fold change vs veh, ZFP14 / RFU, ACTR2 / Fold change vs veh, ACTR2 / RFU, PPP3R1 / Fold change vs veh, PPP3R1 / RFU, PIK3R1 / Fold change vs veh, PIK3R1 / RFU, HNRNPA1 / Fold change vs veh, HNRNPA1 / RFU, RNF170 / Fold change vs veh, RNF170 / RFU, ZNF28 / Fold change vs veh, ZNF28 / RFU, RNGTT / Fold change vs veh, RNGTT / RFU, OGT / Fold change vs veh, OGT / RFU, BRD1 / Fold change vs veh, BRD1 / RFU, MARS / Fold change vs veh, MARS / RFU, ZNF655 / Fold change vs veh, ZNF655 / RFU, FAHD1 / Fold change vs veh, FAHD1 / RFU, BDP1 / Fold change vs veh, BDP1 / RFU, LRRCC1 / Fold change vs veh, LRRCC1 / RFU, ARID1A / Fold change vs veh, ARID1A / RFU, ZNF146 / Fold change vs veh, ZNF146 / RFU, ZNF330 / Fold change vs veh, ZNF330 / RFU, GPN3 / Fold change vs veh, GPN3 / RFU, C9orf123 / Fold change vs veh, C9orf123 / RFU, N4BP2L2 / Fold change vs veh, N4BP2L2 / RFU, ARFIP1 / Fold change vs veh, ARFIP1 / RFU, FAM179B / Fold change vs veh, FAM179B / RFU, BCL10 / Fold change vs veh, BCL10 / RFU, UHRF1BP1L / Fold change vs veh, UHRF1BP1L / RFU, BET1 / Fold change vs veh, BET1 / RFU, CNOT2 / Fold change vs veh, CNOT2 / RFU, ZNF268 / Fold change vs veh, ZNF268 / Fold change vs veh, ZNF507 / RFU, DGCR2 / Fold change vs veh, DGCR2 / RFU, WDSUB1 / Fold change vs veh, WDSUB1 / Fold change vs veh, HSP90B1 /// MIR3652 / RFU, ADSS / Fold change vs veh, ADSS / RFU, GK / Fold change vs veh, GK / RFU, ZNF148 / Fold change vs veh, ZNF148 / RFU, TAF9 / Fold change vs veh, TAF9 / RFU, SLC1A5 / Fold change vs veh, SLC1A5 / RFU, SLMO2 / Fold change vs veh, SLMO2 / RFU, ABCC4 / Fold change vs veh, ABCC4 / RFU, LOC101060439 /// RAP1B / Fold change vs veh, LOC101060439 /// RAP1B / RFU, RFX7 / Fold change vs veh, RFX7 / RFU, GTPBP10 / Fold change vs veh, GTPBP10 / RFU, CNEP1R1 / Fold change vs veh, CNEP1R1 / RFU, BIVM-ERCC5 /// ERCC5 / Fold change vs veh, BIVM-ERCC5 /// ERCC5 / RFU, ILF3 / Fold change vs veh, ILF3 / RFU 11762660_at / Fold change /veh 11762660_at / RFU VCAN (11757783_s_at) / Fold change /veh VCAN (11757783_s_at) / RFU DDX43 (11728927_at) / Fold change /veh DDX43 (11728927_at) / RFU KRT8 (11758188_x_at) / Fold change /veh KRT8 (11758188_x_at) / RFU NKD1 (11759106_at) / Fold change /veh NKD1 (11759106_at) / RFU SRD5A1 (11742802_a_at) / Fold change /veh SRD5A1 (11742802_a_at) / RFU TPSAB1 /// TPSB2 (11721975_s_at) / Fold change /veh TPSAB1 /// TPSB2 (11721975_s_at) / RFU GSTM3 (11746129_a_at) / Fold change /veh GSTM3 (11746129_a_at) / RFU IL23R (11737362_x_at) / Fold change /veh IL23R (11737362_x_at) / RFU TMEM51 (11727254_a_at) / Fold change /veh TMEM51 (11727254_a_at) / RFU PIWIL2 (11732686_x_at) / Fold change /veh PIWIL2 (11732686_x_at) / RFU ORM1 (11744905_x_at) / Fold change /veh ORM1 (11744905_x_at) / RFU CCDC152 (11743942_at) / Fold change /veh CCDC152 (11743942_at) / RFU ECM1 (11717891_a_at) / Fold change /veh ECM1 (11717891_a_at) / RFU IL23R (11748794_a_at) / Fold change /veh IL23R (11748794_a_at) / RFU TNFAIP8L3 (11732012_x_at) / Fold change /veh TNFAIP8L3 (11732012_x_at) / RFU MBOAT4 (11741988_at) / Fold change /veh MBOAT4 (11741988_at) / RFU 11764193_at / Fold change /veh 11764193_at / RFU TMEM53 (11763286_at) / Fold change /veh TMEM53 (11763286_at) / RFU MAGEB2 (11727129_at) / Fold change /veh MAGEB2 (11727129_at) / RFU TMEM200A (11744735_a_at) / Fold change /veh TMEM200A (11744735_a_at) / RFU CCDC152 (11751479_a_at) / Fold change /veh CCDC152 (11751479_a_at) / RFU FAM211A (11726209_a_at) / Fold change /veh FAM211A (11726209_a_at) / RFU RGS16 (11746705_a_at) / Fold change /veh RGS16 (11746705_a_at) / RFU VCAN (11755009_s_at) / Fold change /veh VCAN (11755009_s_at) / RFU RHOB (11743442_s_at) / Fold change /veh RHOB (11743442_s_at) / RFU RGS16 (11720943_a_at) / Fold change /veh RGS16 (11720943_a_at) / RFU RGS16 (11720944_at) / Fold change /veh RGS16 (11720944_at) / RFU, VPS4B / Fold change vs veh, VPS4B / RFU, CREB1 / Fold change vs veh, CREB1 / RFU, DNAJC13 / Fold change vs veh, DNAJC13 / RFU, GNAQ / Fold change vs veh, GNAQ / RFU, CDK5R1 / Fold change vs veh, CDK5R1 / RFU, ZRANB3 / Fold change vs veh, ZRANB3 / RFU, CUL4A / Fold change vs veh, CUL4A / RFU, CCNY / Fold change vs veh, CCNY / RFU, UFL1 / Fold change vs veh, UFL1 / RFU, COG3 / Fold change vs veh, COG3 / RFU, DIAPH2 / Fold change vs veh, DIAPH2 / RFU, SKA2 / Fold change vs veh, SKA2 / RFU, AFF3 / Fold change vs veh, AFF3 / RFU, LMF1 / Fold change vs veh, LMF1 / RFU, IPO11 / Fold change vs veh, IPO11 / RFU, DFFB / Fold change vs veh, DFFB / RFU, FOXP1 / Fold change vs veh, FOXP1 / RFU, CARD8 / Fold change vs veh, CARD8 / RFU, STRN3 / Fold change vs veh, STRN3 / RFU, ADK / Fold change vs veh, ADK / RFU, RASSF2 / Fold change vs veh, RASSF2 / RFU, WIPF1 / Fold change vs veh, WIPF1 / RFU, LARP1B / Fold change vs veh, LARP1B / RFU, RASA1 / Fold change vs veh, RASA1 / RFU, RB1 / Fold change vs veh, RB1 / RFU, PPFIA1 / Fold change vs veh, PPFIA1 / RFU, MAT2A / Fold change vs veh, MAT2A / RFU, CCT5 / Fold change vs veh, CCT5 / RFU, WDR92 / Fold change vs veh, WDR92 / RFU, CUX1 / Fold change vs veh, CUX1 / RFU, TTC7A / Fold change vs veh, TTC7A / RFU, TMEM135 / Fold change vs veh, TMEM135 / RFU, DEPTOR / Fold change vs veh, DEPTOR / RFU, CPM / Fold change vs veh, CPM / RFU, DNAJB6 / Fold change vs veh, DNAJB6 / RFU, CACNA2D3 / Fold change vs veh, CACNA2D3 / RFU, DTX4 / Fold change vs veh, DTX4 / RFU, TFCP2 / Fold change vs veh, TFCP2 / RFU, GMCL1 /// GMCL1P1 / Fold change vs veh, GMCL1 /// GMCL1P1 / RFU, AEBP2 / Fold change vs veh, AEBP2 / RFU, SNHG1 /// SNORD22 /// SNORD25 /// SNORD26 /// SNORD27 /// SNORD28 /// SNORD29 /// SNORD31 / Fold change vs veh, SNHG1 /// SNORD22 /// SNORD25 /// SNORD26 /// SNORD27 /// SNORD28 /// SNORD29 /// SNORD31 / Fold change (Aza/veh), C12orf56 (ProbeSet 11735607_a_at) / Fold change (ACY-1035/veh), C12orf56 (ProbeSet 11735607_a_at) / Fold change (Aza/veh), FGFR1OP (ProbeSet 11751329_s_at) / Fold change (ACY-1035/veh), FGFR1OP (ProbeSet 11751329_s_at) / Fold change (Aza/veh), VPS36 (ProbeSet 11739960_a_at) / Fold change (ACY-1035/veh), VPS36 (ProbeSet 11739960_a_at) / RFU SYPL1 (11715823_x_at) / Fold change /veh SYPL1 (11715823_x_at) / RFU IGFBP7 (11715501_s_at) / Fold change /veh IGFBP7 (11715501_s_at) / RFU REEP3 (11722064_at) / Fold change /veh REEP3 (11722064_at) / RFU IGLL1 (11728026_x_at) / Fold change /veh IGLL1 (11728026_x_at): dose or concentration left out as unconfirmed
Conditions: MV-4-11 cells, 48 hours

Nc1ccc(-c2cccs2)cc1NC(=O)c1ccc2c(c1)cc(C1CC1)n2CCN1CCOCC1 [ACY-1035]
Fold change /veh CD79A (11719716_a_at): 1.12
